In the CATMoS acute toxicity set (Mansouri et al. 2021):

Test: GHS categories as the set defines them, by LD50: 1 up to 5, 2 up to 50, 3 up to 300, 4 up to 2000, 5 above 2000 mg/kg
Settings: rat; in vivo; po

Row | SMILES | GHS category
1 | O=C1c2ccccc2C2=Nc3cccc4cccc(c34)N12 | 5
2 | c1ccc(-c2nc3ccccc3o2)cc1 | 5
3 | COc1ccc(C(=O)Nc2ccccc2)cc1N | 5
4 | CC(O)COC(=O)c1c(Br)c(Br)c(Br)c(Br)c1C(=O)OCCOCCO (stereo unspecified) | 5
5 | CCCCCCC(C)C=O (stereo unspecified) | 5
6 | CCCCCCCCCCCCCCCC(=O)OC1=C(C(=O)Nc2ccccn2)N(C)S(=O)(=O)c2ccsc21 | 2
7 | CC1CC(OC(=O)c2ccccc2O)CC(C)(C)C1 (stereo unspecified) | 5
8 | NC(=O)Nc1ccc(Cl)c(Cl)c1 | 4
9 | Cc1cc(C)c(NC(=O)c2sc(N)nc2C)c(C)c1 | 4
10 | CC(C)OC(=O)C(C)N(C(=O)c1ccccc1)c1ccc(F)c(Cl)c1 (stereo unspecified) | 5
11 | CCCCCC(O)CC (stereo unspecified) | 5
12 | C=COCC1CCC(COC=C)CC1 (stereo unspecified) | 5
13 | CC(=O)OC(C)c1ccccc1 (racemic) | 5
14 | CO[C@@H]1[C@@H](O[C@@H]2O[C@H](C)[C@@H](O[C@H]3C[C@@](C)(O)[C@@H](O)[C@H](C)O3)[C@H](N(C)C)[C@H]2O)[C@@H](CC=O)C[C@@H](C)[C@@H](O[C@@H]2CC[C@H](N(C)C)[C@@H](C)O2)C=CC=CC[C@@H](C)OC(=O)C[C@H]1OC(C)=O | 5
15 | CCOC(=O)c1ocnc1C | 5
16 | O=C[C@H](O)[C@@H](O)[C@H](O)[C@H](O)CO[C@H]1O[C@H](CO[C@H]2O[C@H](CO)[C@@H](O)[C@H](O)[C@H]2O)[C@@H](O)[C@H](O)[C@H]1O | 5
17 | Nc1nnc(-c2cc(Cl)ccc2Cl)c(N)n1 | 4
18 | CCCCCCCCCCOC(C)=O | 5
19 | O=C(O)Cc1ccc(OCC(O)CO)c(Cl)c1 (stereo unspecified) | 5
20 | COC12C[C@@H](CO)CN(C)[C@@H]1Cc1cn(C(C)(C)C)c3cccc2c13 (stereo partly specified) | 4
21 | CC(C)(C)c1ccc(OP(Oc2ccc(C(C)(C)C)cc2C(C)(C)C)Oc2ccc(C(C)(C)C)cc2C(C)(C)C)c(C(C)(C)C)c1 | 5
22 | CC1N=C(c2ccccc2Cl)c2c(ccc(NC(=O)NCCO)c2Cl)N(C)C1=O (stereo unspecified) | 5

Row | SMILES | GHS category
23 | CC[C@H]1CO[C@@](Cn2cncn2)(c2cc3cc(Cl)ccc3o2)O1 | 4
24 | NC1CCN(c2nc3c(cc2F)c(=O)c(C(=O)O)cn3-c2ccc(F)cc2F)C1 (stereo unspecified) | 5
25 | CCC(c1ccc(O)cc1)C(C#N)c1ccc(O)cc1 (stereo unspecified) | 5
26 | C=C(C)C(=O)NCCC[N+](C)(C)C | 5
27 | OC[C@H]1CO[C@@](Cn2cncn2)(c2cc3ccccc3o2)O1 | 4
28 | CCC(=O)N[C@H]1CCc2nc(N)sc2C1 | 5
29 | OC1CCC(N2CCCCC2)CC1 (stereo unspecified) | 5
30 | Cc1ccc(OC(=O)Cc2ccccc2)cc1 | 5
31 | CC1CC(OC(=O)C(Oc2ccc(Cl)cc2)C(C)C)CC(C)(C)C1 (stereo unspecified) | 5
32 | CCCCC1C=C(C)CC(C)O1 (stereo unspecified) | 5
33 | CC(C)N1C2CCC1CC(OC(=O)C(CO)c1ccccc1)C2 (stereo unspecified) | 4
34 | CCCCC(CC)C(c1ccc(O)cc1)c1ccc(O)cc1 (stereo unspecified) | 4
35 | COC(=O)c1sc(N)c(C#N)c1C | 5
36 | CO/N=C(/C(=O)N[C@@H]1C(=O)N2C(C(=O)O)=C(CSc3cnns3)CS[C@H]12)c1csc(N)n1 | 5
37 | CCn1c2ccccc2c2ccccc21 | 5
38 | CC(C)c1cc2c(cc1S(=O)(=O)O)[C@@]1(C)CCC[C@@](C)(C(=O)O)[C@@H]1CC2 | 5
39 | CCCC(Cl)CCCC(Cl)CCC(Cl)CCC(Cl)CCC(Cl)CCCC(Cl)CCC (stereo unspecified) | 5
40 | CC(=O)N(C)C(=O)Oc1cccc2c1OC1(CCCC1)O2 | 4
41 | O=C1CCCCCN1SSN1CCCCCC1=O | 5
42 | CC(C)c1ccc(C(C)C)cc1 | 5
43 | CCC(=O)O[C@H]1[C@H](O[C@@H]2[C@@H](C)[C@H](O[C@H]3C[C@@](C)(OC)[C@@H](O)[C@H](C)O3)[C@@H](C)C(=O)O[C@H](CC)[C@@](C)(O)[C@H](O)[C@@H](C)C(=O)[C@H](C)C[C@@]2(C)O)O[C@H](C)C[C@@H]1N(C)C | 5
44 | CC12CCC3c4ccc(OC(=O)c5ccccc5)cc4CCC3C1CCC2OC(=O)COC(=O)CCCc1ccc(NCCCl)cc1 (stereo unspecified) | 5

Row | SMILES | GHS category
45 | COC(=O)C1=C(C)NC(C)=C(C(=O)OC(C)C)C1c1cccc2nonc12 (stereo unspecified) | 5
46 | CCCCCCCCCCOC | 5
47 | C=C(C)C1CCC(C)C(=O)C1 (stereo unspecified) | 5
48 | CCCCCCCCOc1ccccc1C(=O)Nc1ccc(C(=O)OCC[N+](C)(CC)CC)cc1 | 4
49 | CCOc1nc2cccc(C(=O)O)c2n1Cc1ccc(-c2ccccc2-c2nnn[nH]2)cc1 | 5
50 | CC(C)=CCOC1=C(C(=O)Nc2ccccn2)N(C)S(=O)(=O)c2cc(Cl)sc21 | 2
51 | O=c1c2n[nH]nc2nc2sc(CCC3CCCCC3)nn12 | 5
52 | Brc1ccc(N/C(=N/C2CCCCC2)c2ccccc2)cc1 | 5
53 | Cc1cc2c(cc1S(N)(=O)=O)S(=O)(=O)CCC2 | 5
54 | CCCCCCCCCCCCCCCCCC#N | 5
55 | CCC(C)c1cc(S(=O)(=O)O)cc(-n2nc3ccccc3n2)c1O (stereo unspecified) | 5
56 | CN1C(=O)C(C)(C)Oc2cc(C(=O)C=Cc3ccc(O)cc3)ccc21 | 5
57 | OC(OCC(COC(O)C(Cl)(Cl)Cl)(COC(O)C(Cl)(Cl)Cl)COC(O)C(Cl)(Cl)Cl)C(Cl)(Cl)Cl (stereo unspecified) | 4
58 | CC1CC(OC(=O)COc2cccc(C(F)(F)F)c2)CC(C)(C)C1 (stereo unspecified) | 5
59 | C=C(C)C(CC=C(C)C)COC(=O)C=C(C)C (stereo unspecified) | 5
60 | CCCCCCCCOc1ccc(-c2ccc(C#N)cc2)cc1 | 5
61 | O=S(=O)(CCl)c1ccc(Br)cc1 | 5
62 | CCCCC(CC)COC(=O)OCC(CC)CCCC (stereo unspecified) | 5
63 | COc1cccc(C(=O)NN(C(=O)c2cc(C)cc(C)c2)C(C)(C)C)c1C | 5
64 | NS(=O)(=O)c1cc(C2(O)NC(=O)c3ccccc32)ccc1Cl (stereo unspecified) | 5
65 | CC(C)Oc1ccc2c(c1)N(CCC1CCCCN1C)c1ccccc1S2 (stereo unspecified) | 5
66 | CCOCCN(Cc1ccc(Oc2ccc([N+](=O)[O-])cc2)cc1)C(=O)C(Cl)Cl | 5

Row | SMILES | GHS category
67 | O=C(Cc1cccs1)N[C@@H]1C(=O)N2C(C(=O)O)=C(CO)CS[C@H]12 | 5
68 | OC1C(Cl)(Cl)C(=C(Cl)Cl)C(O)(C(Cl)Cl)C1(Cl)Cl (stereo unspecified) | 4
69 | COc1ccc(OC)c(C(O)CNC(=O)CN)c1 (stereo unspecified) | 2
70 | C=CC1=C(C(=O)O)N2C(=O)[C@@H](NC(=O)C(=NOCC(=O)O)c3csc(N)n3)[C@H]2SC1 | 5
71 | CC(C)CCOC(=O)C=Cc1ccccc1 | 5
72 | COP(=O)(OC)Oc1ccc(Cl)cc1Cl | 3
73 | O=C(O)[C@H](O)[C@H](O)[C@@H](O)[C@H](O)[C@H](O)CO | 5
74 | Clc1ccc(Oc2cccc(Cl)c2)cc1 | 5
75 | Cc1ccc(SCOC(Cn2ccnc2)c2ccc(Cl)cc2Cl)cc1 (stereo unspecified) | 5
76 | CN(CCO)S(=O)(=O)C(F)(F)C(F)(F)C(F)(F)C(F)(F)F | 5
77 | O=C(Nc1ccccc1-c1ccc(Cl)cc1)c1cccnc1Cl | 5
78 | CC(Oc1ccc(Oc2ncc(C(F)(F)F)cc2Cl)cc1)C(=O)O (stereo unspecified) | 4
79 | O=S(=O)(O)c1cccc(N=Nc2ccc(N=Nc3ccc(Nc4ccccc4)c4c(S(=O)(=O)O)cccc34)c3ccccc23)c1 | 5
80 | Cc1c([N+](=O)[O-])cc2c(c1[N+](=O)[O-])C(C)(C)CC2(C)C | 5
81 | COc1ccccc1OCCNCC(O)c1ccc(C)c(S(N)(=O)=O)c1 (stereo unspecified) | 5
82 | Cc1c(CC(=O)O)c2c(n1CC(C)C)CC(C)(C)CC2=O | 5
83 | NC1=NCC2c3ccccc3Cc3ccccc3N12 (stereo unspecified) | 4
84 | CC(C)C[C@H](NC(=O)[C@@H](Cc1ccc2ccccc2c1)NC(=O)[C@H](Cc1ccc(O)cc1)NC(=O)[C@H](CO)NC(=O)[C@H](Cc1c[nH]c2ccccc12)NC(=O)[C@H](Cc1cnc[nH]1)NC(=O)[C@@H]1CCC(=O)N1)C(=O)N[C@@H](CCCN=C(N)N)C(=O)N1CCC[C@H]1C(=O)NCC(N)=O | 3
85 | CCCC(=O)O[C@]1(C(=O)CCl)[C@@H](C)C[C@H]2[C@@H]3CCC4=CC(=O)C=C[C@]4(C)[C@@]3(F)C(=O)C[C@@]21C | 5
86 | CC(C)(C)[C@H]1CC[C@H](O)CC1 | 5
87 | COC[C@H]1CO[C@@](Cn2ccnc2)(c2cc3ccccc3o2)O1 | 4
88 | CCCCOC(=O)CCC(C)=O | 5

Row | SMILES | GHS category
89 | Cc1ccc2oc(C=Cc3nc4cc(C)ccc4o3)nc2c1 | 5
90 | Cc1ccc(C(=O)c2ccc(CC(=O)NCC(=O)Nc3cccc(Cl)c3)n2C)cc1 | 4
91 | Nc1nc2c(ncn2COCCO)c(=O)[nH]1 | 5
92 | S=C(SSC(=S)N(Cc1ccccc1)Cc1ccccc1)N(Cc1ccccc1)Cc1ccccc1 | 5
93 | CCCCCCC1CCCC1=O (stereo unspecified) | 5
94 | C=CC(C)(O)CC/C=C(\C)CC/C=C(\C)CCC=C(C)C (stereo unspecified) | 5
95 | CCOC(=O)COc1cc(-c2nn(C)c(OC(F)F)c2Cl)c(F)cc1Cl | 5
96 | CC(=O)[C@@]1(O)CC[C@H]2[C@@H]3CCC4=CC(=O)CC[C@]4(C)C3=CC[C@@]21C | 5
97 | CCCCCCCCCCCCCC(=O)O | 5
98 | CCC(=NOC/C=C/Cl)C1=C(O)CC(C2CCOCC2)CC1=O (stereo unspecified) | 5
99 | COC12CC(COC3=CC(=O)CC3)CN(C)C1Cc1cn(C(C)(C)C)c3cccc2c13 (stereo unspecified) | 4
100 | CC(C)C[C@H](NC(=O)CNC(=O)[C@H](Cc1ccc(O)cc1)NC(=O)[C@H](CO)NC(=O)[C@H](Cc1c[nH]c2ccccc12)NC(=O)[C@H](Cc1cnc[nH]1)NC(=O)[C@@H]1CCC(=O)N1)C(=O)N[C@@H](CCCN=C(N)N)C(=O)N1CCC[C@H]1C(=O)NCC(N)=O | 5
101 | C/C=C(\C)C(=O)O | 5
102 | CCCCC(CC)COC(=O)c1ccc(Nc2nc(Nc3ccc(C(=O)NC(C)(C)C)cc3)nc(Nc3ccc(C(=O)OCC(CC)CCCC)cc3)n2)cc1 (stereo unspecified) | 5
103 | CC(=O)Nc1ccc(NC(=O)c2cc3ccccc3cc2O)cc1 | 5
104 | CC(F)(Cl)Cl | 5
105 | O=C(CC1Sc2ccccc2NC1=O)Nc1cccc(Cl)c1 (stereo unspecified) | 5
106 | COC(=O)C1=C(C)NC(C)=C(C(=O)O)C1c1cc([N+](=O)[O-])ccc1F (stereo unspecified) | 5
